In PubChem BioAssay AID2060606 (Molecular Pharmacology Branch, DTP, NCI, 2025):

Tested on: 922993-354-T-J3-PDC complex spheroids, viability, % test/control
Assay: Anticancer human tumor 922993-354-T-J3-PDC patient-derived endometrial carcinoma cell line growth inhibition [CLK]
Conditions: for IC50: curve of first compound; for viability, T/C: stronger effect = lower value
Method in brief: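 Patient-derived tumor cells grown as complex spheroids with HUVEC endothelial cells and mesenchymal stem cells, treated with drug combinations. Concentrations descend in half-log steps from near clinical Cmax, or from 10 microM if Cmax unknown.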

[1] = second compound 0.0316 µM, first compound 0.0316 µM
[2] = second compound 0.0316 µM, first compound 0.1 µM
[3] = second compound 0.0316 µM, first compound 0.316 µM
[4] = second compound 0.0316 µM, first compound 1 µM
[5] = second compound 0.0316 µM, first compound 3.16 µM
[6] = second compound 0.0316 µM, first compound 10 µM
[7] = second compound 0.1 µM, first compound 0.0316 µM
[8] = second compound 0.1 µM, first compound 0.1 µM
[9] = second compound 0.1 µM, first compound 0.316 µM
[10] = second compound 0.1 µM, first compound 1 µM
[11] = second compound 0.1 µM, first compound 3.16 µM
[12] = second compound 0.1 µM, first compound 10 µM
[13] = second compound 0.316 µM, first compound 0.0316 µM
[14] = second compound 0.316 µM, first compound 0.1 µM
[15] = second compound 0.316 µM, first compound 0.316 µM
[16] = second compound 0.316 µM, first compound 1 µM
[17] = second compound 0.316 µM, first compound 3.16 µM
[18] = second compound 0.316 µM, first compound 10 µM
[19] = second compound 1 µM, first compound 0.0316 µM
[20] = second compound 1 µM, first compound 0.1 µM
[21] = second compound 1 µM, first compound 0.316 µM
[22] = second compound 1 µM, first compound 1 µM
[23] = second compound 1 µM, first compound 3.16 µM
[24] = second compound 1 µM, first compound 10 µM
[25] = second compound 3.16 µM, first compound 0.0316 µM
[26] = second compound 3.16 µM, first compound 0.1 µM
[27] = second compound 3.16 µM, first compound 0.316 µM
[28] = second compound 3.16 µM, first compound 1 µM
[29] = second compound 3.16 µM, first compound 3.16 µM
[30] = second compound 3.16 µM, first compound 10 µM
[31] = second compound 10 µM, first compound 0.0316 µM
[32] = second compound 10 µM, first compound 0.1 µM
[33] = second compound 10 µM, first compound 0.316 µM
[34] = second compound 10 µM, first compound 1 µM
[35] = second compound 10 µM, first compound 3.16 µM
[36] = second compound 10 µM, first compound 10 µM
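Also: spheroids exposed to the agents for 7 days before readout.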

What does the source list for `CC(C)CC(NC(=O)C(Cc1ccccc1)NC(=O)c1cnccn1)B(O)O` (stereo unspecified) + CN1CCN(c2cc(C(=O)Nc3cc4cc(-c5cnn(C)c5)ccc4cn3)ccn2)CC1?
IC50 (second compound 0.0316 µM): 6.51 nM; IC50 (second compound 0.1 µM): 6.63 nM; IC50 (second compound 0.316 µM): < 0.949 nM; IC50 (second compound 1 µM): < 0.949 nM; IC50 (second compound 3.16 µM): < 0.949 nM; IC50 (second compound 10 µM): < 0.949 nM; viability, T/C (second compound 0.0316 µM, first compound 0.000949 µM): 103%; viability, T/C (second compound 0.0316 µM, first compound 0.003 µM): 85.5%; viability, T/C (second compound 0.0316 µM, first compound 0.00949 µM): 32.6%; viability, T/C (second compound 0.0316 µM, first compound 0.03 µM): 6.15%; viability, T/C (second compound 0.0316 µM, first compound 0.0949 µM): 1.44%; viability, T/C (second compound 0.0316 µM, first compound 0.3 µM): 1.26%; viability, T/C (second compound 0.1 µM, first compound 0.000949 µM): 94.7%; viability, T/C (second compound 0.1 µM, first compound 0.003 µM): 74.5%; viability, T/C (second compound 0.1 µM, first compound 0.00949 µM): 40.2%; viability, T/C (second compound 0.1 µM, first compound 0.03 µM): 8.34%; viability, T/C (second compound 0.1 µM, first compound 0.0949 µM): 1.08%; viability, T/C (second compound 0.1 µM, first compound 0.3 µM): 1.56%; viability, T/C (second compound 0.316 µM, first compound 0.000949 µM): 50.3%; viability, T/C (second compound 0.316 µM, first compound 0.003 µM): 28.6%; viability, T/C (second compound 0.316 µM, first compound 0.00949 µM): 20.6%; viability, T/C (second compound 0.316 µM, first compound 0.03 µM): 6.46%; viability, T/C (second compound 0.316 µM, first compound 0.0949 µM): 1.39%; viability, T/C (second compound 0.316 µM, first compound 0.3 µM): 0.48%; viability, T/C (second compound 1 µM, first compound 0.000949 µM): 0.16%; viability, T/C (second compound 1 µM, first compound 0.003 µM): 1.6%; viability, T/C (second compound 1 µM, first compound 0.00949 µM): 0.98%; viability, T/C (second compound 1 µM, first compound 0.03 µM): 0.44%; viability, T/C (second compound 1 µM, first compound 0.0949 µM): 0.08%; viability, T/C (second compound 1 µM, first compound 0.3 µM): 0.48%; viability, T/C (second compound 3.16 µM, first compound 0.000949 µM): 0.1%; viability, T/C (second compound 3.16 µM, first compound 0.003 µM): 0.68%; viability, T/C (second compound 3.16 µM, first compound 0.00949 µM): 1%; viability, T/C (second compound 3.16 µM, first compound 0.03 µM): 0.07%; viability, T/C (second compound 3.16 µM, first compound 0.0949 µM): 0.83%; viability, T/C (second compound 3.16 µM, first compound 0.3 µM): 0.79%; viability, T/C (second compound 10 µM, first compound 0.000949 µM): 0.08%; viability, T/C (second compound 10 µM, first compound 0.003 µM): 1.39%; viability, T/C (second compound 10 µM, first compound 0.00949 µM): 0.12%; viability, T/C (second compound 10 µM, first compound 0.03 µM): 0.16%; viability, T/C (second compound 10 µM, first compound 0.0949 µM): 2.52%; viability, T/C (second compound 10 µM, first compound 0.3 µM): 2.16%

How did the IC50 (second compound 0.0316 µM) turn out when `CC1COCCN1c1cc(C2(S(C)(=N)=O)CC2)nc(-c2ccnc3[nH]ccc23)n1` (stereo unspecified) + CN1CCN(c2cc(C(=O)Nc3cc4cc(-c5cnn(C)c5)ccc4cn3)ccn2)CC1 was run?
The IC50 was greater than 10000 nM.

And the IC50 (second compound 0.1 µM)?
The IC50 was greater than 10000 nM.

And the IC50 (second compound 0.316 µM)?
The IC50 was less than 31.6 nM.

What about the IC50 (second compound 1 µM) of the same compound?
The IC50 was less than 31.6 nM.

What about the IC50 (second compound 3.16 µM) of the same compound?
The IC50 was less than 31.6 nM.

What about the IC50 (second compound 10 µM) of the same compound?
Its IC50 is less than 31.6 nM.

What about the viability, T/C [1] of the same compound?
The viability, T/C was 122%.

And the viability, T/C [2]?
Its viability, T/C is 119%.

What about the viability, T/C [3] of the same compound?
The viability, T/C was 119%.

And the viability, T/C [4]?
The viability, T/C was 120%.

And the viability, T/C [5]?
The viability, T/C was 117%.

What about the viability, T/C [6] of the same compound?
Its viability, T/C is 76.3%.

What about the viability, T/C [7] of the same compound?
Its viability, T/C is 90.6%.

And the viability, T/C [8]?
Its viability, T/C is 111%.

And the viability, T/C [9]?
Its viability, T/C is 111%.

What about the viability, T/C [10] of the same compound?
The viability, T/C was 94.6%.

What about the viability, T/C [11] of the same compound?
The viability, T/C was 104%.

What about the viability, T/C [12] of the same compound?
Its viability, T/C is 60.7%.

What about the viability, T/C [13] of the same compound?
The viability, T/C was 38.1%.

What about the viability, T/C [14] of the same compound?
Its viability, T/C is 45.2%.

What about the viability, T/C [15] of the same compound?
The viability, T/C was 35.9%.

And the viability, T/C [16]?
The viability, T/C was 36.2%.

What about the viability, T/C [17] of the same compound?
The viability, T/C was 27.9%.

And the viability, T/C [18]?
Its viability, T/C is 13.3%.

What about the viability, T/C [19] of the same compound?
The viability, T/C was 0.12%.

What about the viability, T/C [20] of the same compound?
Its viability, T/C is 0.14%.

What about the viability, T/C [21] of the same compound?
The viability, T/C was 1.67%.

And the viability, T/C [22]?
The viability, T/C was 0.14%.

And the viability, T/C [23]?
Its viability, T/C is 0.12%.

What about the viability, T/C [24] of the same compound?
Its viability, T/C is 0.08%.

And the viability, T/C [25]?
The viability, T/C was 0.13%.

What about the viability, T/C [26] of the same compound?
The viability, T/C was 0.13%.

And the viability, T/C [27]?
The viability, T/C was 0.16%.

And the viability, T/C [28]?
The viability, T/C was 0.94%.

What about the viability, T/C [29] of the same compound?
Its viability, T/C is 1.11%.

What about the viability, T/C [30] of the same compound?
Its viability, T/C is 0.87%.

What about the viability, T/C [31] of the same compound?
Its viability, T/C is 0.78%.

And the viability, T/C [32]?
Its viability, T/C is 0.17%.

And the viability, T/C [33]?
Its viability, T/C is 1.4%.

And the viability, T/C [34]?
The viability, T/C was 0.2%.

What about the viability, T/C [35] of the same compound?
Its viability, T/C is 0.94%.

And the viability, T/C [36]?
Its viability, T/C is 1.78%.

`O=C(c1cc(Cc2n[nH]c(=O)c3ccccc23)ccc1F)N1CCN(C(=O)C2CC2)CC1` + CN1CCN(c2cc(C(=O)Nc3cc4cc(-c5cnn(C)c5)ccc4cn3)ccn2)CC1 was tested. Which IC50 (second compound 0.0316 µM) did it give?
The IC50 was greater than 10000 nM.

And the IC50 (second compound 0.1 µM)?
Its IC50 is greater than 10000 nM.

What about the IC50 (second compound 0.316 µM) of the same compound?
The IC50 was less than 31.6 nM.

And the IC50 (second compound 1 µM)?
The IC50 was less than 31.6 nM.

What about the IC50 (second compound 3.16 µM) of the same compound?
Its IC50 is less than 31.6 nM.

And the IC50 (second compound 10 µM)?
The IC50 was less than 31.6 nM.

And the viability, T/C [1]?
The viability, T/C was 118%.

And the viability, T/C [2]?
The viability, T/C was 106%.

What about the viability, T/C [3] of the same compound?
The viability, T/C was 108%.

What about the viability, T/C [4] of the same compound?
Its viability, T/C is 117%.

What about the viability, T/C [5] of the same compound?
Its viability, T/C is 93.5%.

And the viability, T/C [6]?
The viability, T/C was 97%.

What about the viability, T/C [7] of the same compound?
Its viability, T/C is 92.1%.

What about the viability, T/C [8] of the same compound?
Its viability, T/C is 98.6%.

And the viability, T/C [9]?
The viability, T/C was 95.8%.

And the viability, T/C [10]?
Its viability, T/C is 87%.

What about the viability, T/C [11] of the same compound?
The viability, T/C was 84.6%.

What about the viability, T/C [12] of the same compound?
The viability, T/C was 84.8%.

What about the viability, T/C [13] of the same compound?
Its viability, T/C is 44.1%.

What about the viability, T/C [14] of the same compound?
Its viability, T/C is 32%.

What about the viability, T/C [15] of the same compound?
The viability, T/C was 24.3%.

And the viability, T/C [16]?
Its viability, T/C is 33%.

And the viability, T/C [17]?
The viability, T/C was 39.1%.

And the viability, T/C [18]?
Its viability, T/C is 32.2%.

And the viability, T/C [19]?
The viability, T/C was 0.1%.

And the viability, T/C [20]?
The viability, T/C was 0.12%.

And the viability, T/C [21]?
The viability, T/C was 1.56%.

What about the viability, T/C [22] of the same compound?
Its viability, T/C is 0.08%.

What about the viability, T/C [23] of the same compound?
Its viability, T/C is 1.32%.

And the viability, T/C [24]?
The viability, T/C was 1.97%.

And the viability, T/C [25]?
Its viability, T/C is 0.08%.

What about the viability, T/C [26] of the same compound?
Its viability, T/C is 0.63%.

And the viability, T/C [27]?
The viability, T/C was 0.57%.

What about the viability, T/C [28] of the same compound?
The viability, T/C was 0.11%.

And the viability, T/C [29]?
Its viability, T/C is 1.25%.

What about the viability, T/C [30] of the same compound?
Its viability, T/C is 1.13%.

What about the viability, T/C [31] of the same compound?
Its viability, T/C is 0.12%.

And the viability, T/C [32]?
The viability, T/C was 1.28%.

What about the viability, T/C [33] of the same compound?
The viability, T/C was 2.09%.

What about the viability, T/C [34] of the same compound?
The viability, T/C was 1.28%.

And the viability, T/C [35]?
The viability, T/C was 0.42%.

What about the viability, T/C [36] of the same compound?
The viability, T/C was 2.31%.
